Results on eight compounds are retold here after patent US20220323406A1, “METHODS AND COMPOSITIONS FOR DIFFERENTIATING STEM CELLS” (Massachusetts Institute of Technology, priority 2019, published 2022).

Assay [1] relates to ENR+CD organoids. Nature of the assay: Primary screen: ATP (CellTiter-Glo 3D, CTG) cell number/viability, 2.5-D 384-well ENR+CD organoids.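 On all read-outs here: compounds given at plating and again on day 3 over a 6-day differentiation from ENR+CV stem-cell-enriched precursors, ATP measured on day 6, plate median as control.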 As to conditions: primary screen; for Z.CTG: standard z score. For orientation: ATP-based viability assays read luminescence as a measure of living cells.
The test system of assay [2] is ENR+CD organoids (ISC to Paneth cell differentiation). Nature of the assay: Primary screen: basal (non-stimulated) lysozyme secretion LYZ.NS, 2.5-D 384-well ENR+CD organoid differentiation. The conditions noted are these: primary screen; for Z.LYZ.NS: standard z score. The format is cell-based, mouse. The source says: (§1) High-throughput screening.
For assay [3] the test system is unchanged. Nature of the assay: Primary screen: CCh-stimulated lysozyme secretion LYZ.S, 2.5-D 384-well ENR+CD organoid differentiation. Format: cell-based, mouse. The conditions noted are these: primary screen.
Excerpt: as §1

The mark [4] stands for this setting: dose 0.08 uM, FC relative to plate median.
The mark [5] stands for this setting: dose 0.40 uM, FC relative to plate median.
Where [6] appears, read: dose 2.00 uM, FC relative to plate median.
Setting [7] is: dose 10.00 uM, FC relative to plate median.

`O=S(=O)(c1ccccc1)N(CC(F)(F)F)c1ccc(C(O)(C(F)(F)F)C(F)(F)F)cc1` [T0901317]: the Dose.FC.CTG is reported as 0.047 log2 fold change in assay [1] (setting [4]), 0.178 log2 fold change in assay [1] (setting [5]), 0.096 log2 fold change in assay [1] (setting [6]) and 0.114 log2 fold change in assay [1] (setting [7]). In addition, the Dose.FC.LYZ.NS in assay [2] (setting [4]) is 0.086 log2 fold change; in assay [2] (setting [5]), 0.042 log2 fold change; in assay [2] (setting [6]), 0.074 log2 fold change; in assay [2] (setting [7]) it was −0.015 log2 fold change. The Z.LYZ.NS in assay [2] (dose 0.08 uM) is recorded as 0.748; in assay [2] (dose 0.40 uM), 0.369; in assay [2] (dose 2.00 uM), 0.644; in assay [2] (dose 10.00 uM), −0.130. The Dose.FC.LYZ.S was 0.111 log2 fold change in assay [3] (setting [4]), 0.077 log2 fold change in assay [3] (setting [5]), 0.070 log2 fold change in assay [3] (setting [6]) and −0.034 log2 fold change in assay [3] (setting [7]).

Take `CNC(=O)c1ccccc1Nc1nc(Nc2ccc(N3CCOCC3)cc2OC)ncc1Cl` [TAE226 (NVP-TAE226)]: the Dose.FC.CTG is −0.472 log2 fold change in assay [1] (setting [4]), −1.126 log2 fold change in assay [1] (setting [5]), −1.284 log2 fold change in assay [1] (setting [6]) and −0.989 log2 fold change in assay [1] (setting [7]). Moreover, the Z.CTG in assay [1] (dose 0.08 uM) is listed as −1.127; in assay [1] (dose 0.40 uM), −2.689; in assay [1] (dose 2.00 uM), −3.068; in assay [1] (dose 10.00 uM), −2.363. Also, the Dose.FC.LYZ.NS in assay [2] (setting [4]) is on record as −0.256 log2 fold change; in assay [2] (setting [5]), −0.304 log2 fold change; in assay [2] (setting [6]), −0.323 log2 fold change; in assay [2] (setting [7]), −0.292 log2 fold change. The Z.LYZ.NS in assay [2] (dose 0.08 uM) is reported as −2.226; in assay [2] (dose 0.40 uM), −2.650; in assay [2] (dose 2.00 uM), −2.813; in assay [2] (dose 10.00 uM) it was −2.545. Moreover, the Dose.FC.LYZ.S is reported as −0.333 log2 fold change in assay [3] (setting [4]), −0.376 log2 fold change in assay [3] (setting [5]), −0.400 log2 fold change in assay [3] (setting [6]) and −0.426 log2 fold change in assay [3] (setting [7]).

As to `CNC(=O)c1ccc2cc([C@@]3(O)CCn4cncc43)ccc2c1` [TAK-700 (Orteronel)], the Dose.FC.CTG is given as −0.276 log2 fold change in assay [1] (setting [4]), −0.024 log2 fold change in assay [1] (setting [5]), −0.084 log2 fold change in assay [1] (setting [6]) and 0.092 log2 fold change in assay [1] (setting [7]). Also, the Z.CTG was −0.659 in assay [1] (dose 0.08 uM), −0.056 in assay [1] (dose 0.40 uM), −0.202 in assay [1] (dose 2.00 uM) and 0.219 in assay [1] (dose 10.00 uM). Besides, the Dose.FC.LYZ.NS in assay [2] (setting [4]) is 0.176 log2 fold change; in assay [2] (setting [5]), 0.182 log2 fold change; in assay [2] (setting [6]), 0.121 log2 fold change; in assay [2] (setting [7]) it was −0.002 log2 fold change. In addition, the Z.LYZ.NS in assay [2] (dose 0.08 uM) is reported as 1.535; in assay [2] (dose 0.40 uM), 1.585; in assay [2] (dose 2.00 uM), 1.058; in assay [2] (dose 10.00 uM), −0.018. In addition, the Dose.FC.LYZ.S in assay [3] (setting [4]) was 0.113 log2 fold change; in assay [3] (setting [5]), 0.090 log2 fold change; in assay [3] (setting [6]), 0.093 log2 fold change; in assay [3] (setting [7]) it was 0.032 log2 fold change.

As for `Cc1cc(OCCCS(C)(=O)=O)cc(C)c1-c1cccc(COc2ccc3c(c2)OC[C@H]3CC(=O)O)c1` [TAK-875], the Dose.FC.CTG in assay [1] (setting [4]) is reported as 0.239 log2 fold change; in assay [1] (setting [5]) it was −0.164 log2 fold change; in assay [1] (setting [6]), −0.157 log2 fold change; in assay [1] (setting [7]) it was −0.291 log2 fold change. The Dose.FC.LYZ.NS in assay [2] (setting [4]) is 0.096 log2 fold change; in assay [2] (setting [5]), 0.023 log2 fold change; in assay [2] (setting [6]) it was −0.043 log2 fold change; in assay [2] (setting [7]) it was −0.138 log2 fold change. For the same compound, the Z.LYZ.NS in assay [2] (dose 0.08 uM) is listed as 0.839; in assay [2] (dose 0.40 uM) it was 0.199; in assay [2] (dose 2.00 uM), −0.378; in assay [2] (dose 10.00 uM), −1.199. Also, the Dose.FC.LYZ.S is listed as 0.212 log2 fold change in assay [3] (setting [4]), 0.014 log2 fold change in assay [3] (setting [5]), −0.031 log2 fold change in assay [3] (setting [6]) and −0.060 log2 fold change in assay [3] (setting [7]).

Take `O=C1CC(=O)c2c(Cl)c(Cl)c(Cl)c(Cl)c21` [TCID]: the Dose.FC.CTG in assay [1] (setting [4]) is given as −0.136 log2 fold change; in assay [1] (setting [5]) it was −0.007 log2 fold change; in assay [1] (setting [6]), −0.217 log2 fold change; in assay [1] (setting [7]), −0.228 log2 fold change. Moreover, the Z.CTG is on record as −0.325 in assay [1] (dose 0.08 uM), −0.017 in assay [1] (dose 0.40 uM), −0.517 in assay [1] (dose 2.00 uM) and −0.545 in assay [1] (dose 10.00 uM). In addition, the Dose.FC.LYZ.NS was 0.049 log2 fold change in assay [2] (setting [4]), −0.018 log2 fold change in assay [2] (setting [5]), 0.066 log2 fold change in assay [2] (setting [6]) and −0.018 log2 fold change in assay [2] (setting [7]). The Z.LYZ.NS in assay [2] (dose 0.08 uM) is listed as 0.431; in assay [2] (dose 0.40 uM), −0.155; in assay [2] (dose 2.00 uM), 0.578; in assay [2] (dose 10.00 uM), −0.159. For the same compound, the Dose.FC.LYZ.S in assay [3] (setting [4]) is 0.062 log2 fold change; in assay [3] (setting [5]) it was 0.017 log2 fold change; in assay [3] (setting [6]) it was −0.066 log2 fold change; in assay [3] (setting [7]) it was −0.054 log2 fold change.

As to `COc1ccc(C(=O)Nc2sc3c(c2C(N)=O)CCCC3)cc1OC` [TCS 359], the Dose.FC.CTG is 0.150 log2 fold change in assay [1] (setting [4]), 0.250 log2 fold change in assay [1] (setting [5]), 0.050 log2 fold change in assay [1] (setting [6]) and −0.089 log2 fold change in assay [1] (setting [7]). Also, the Z.CTG in assay [1] (dose 0.08 uM) is 0.358; in assay [1] (dose 0.40 uM), 0.598; in assay [1] (dose 2.00 uM), 0.119; in assay [1] (dose 10.00 uM), −0.212. Besides, the Dose.FC.LYZ.NS in assay [2] (setting [4]) is reported as 0.085 log2 fold change; in assay [2] (setting [5]), 0.058 log2 fold change; in assay [2] (setting [6]), 0.018 log2 fold change; in assay [2] (setting [7]) it was −0.008 log2 fold change. Besides, the Z.LYZ.NS in assay [2] (dose 0.08 uM) is given as 0.742; in assay [2] (dose 0.40 uM) it was 0.502; in assay [2] (dose 2.00 uM), 0.156; in assay [2] (dose 10.00 uM), −0.072. For the same compound, the Dose.FC.LYZ.S in assay [3] (setting [4]) is 0.098 log2 fold change; in assay [3] (setting [5]) it was 0.069 log2 fold change; in assay [3] (setting [6]), −0.006 log2 fold change; in assay [3] (setting [7]), 0.026 log2 fold change.

Consider `Nc1nc(N)c2nc(-c3cccc(O)c3)c(-c3cccc(O)c3)nc2n1` [TG100-115], for which the Dose.FC.CTG is recorded as −0.256 log2 fold change in assay [1] (dose 0.08 uM), 0.066 log2 fold change in assay [1] (dose 0.40 uM), −0.013 log2 fold change in assay [1] (dose 2.00 uM) and −0.116 log2 fold change in assay [1] (dose 10.00 uM). The “Z.CTG (standard z score)” value in assay [1] (dose 0.08 uM) is given as −0.611; in assay [1] (dose 0.40 uM) it was 0.158; in assay [1] (dose 2.00 uM), −0.031; in assay [1] (dose 10.00 uM), −0.277. In addition, the Dose.FC.LYZ.NS in assay [2] (dose 0.08 uM) was 0.208 log2 fold change; in assay [2] (dose 0.40 uM), −0.026 log2 fold change; in assay [2] (dose 2.00 uM), 0.003 log2 fold change; in assay [2] (dose 10.00 uM), −0.026 log2 fold change. Further, the “Z.LYZ.NS (standard z score)” value is listed as 1.812 in assay [2] (dose 0.08 uM), −0.223 in assay [2] (dose 0.40 uM), 0.025 in assay [2] (dose 2.00 uM) and −0.223 in assay [2] (dose 10.00 uM). The Dose.FC.LYZ.S in assay [3] (dose 0.08 uM) was 0.073 log2 fold change; in assay [3] (dose 0.40 uM), 0.032 log2 fold change; in assay [3] (dose 2.00 uM), −0.019 log2 fold change; in assay [3] (dose 10.00 uM) it was −0.100 log2 fold change.

On to `NC(=O)Nc1sc(-c2ccc(F)cc2)cc1C(N)=O` [TPCA-1], for which the Dose.FC.CTG in assay [1] (dose 0.08 uM) is on record as −0.061 log2 fold change; in assay [1] (dose 0.40 uM), −0.004 log2 fold change; in assay [1] (dose 2.00 uM), −0.005 log2 fold change; in assay [1] (dose 10.00 uM) it was −0.531 log2 fold change. Besides, the “Z.CTG (standard z score)” value is given as −0.146 in assay [1] (dose 0.08 uM), −0.010 in assay [1] (dose 0.40 uM), −0.012 in assay [1] (dose 2.00 uM) and −1.269 in assay [1] (dose 10.00 uM). Further, the Dose.FC.LYZ.NS in assay [2] (dose 0.08 uM) is recorded as 0.072 log2 fold change; in assay [2] (dose 0.40 uM), −0.047 log2 fold change; in assay [2] (dose 2.00 uM), −0.059 log2 fold change; in assay [2] (dose 10.00 uM), −0.197 log2 fold change. Also, the “Z.LYZ.NS (standard z score)” value in assay [2] (dose 0.08 uM) is recorded as 0.627; in assay [2] (dose 0.40 uM), −0.413; in assay [2] (dose 2.00 uM), −0.514; in assay [2] (dose 10.00 uM), −1.711. For the same compound, the Dose.FC.LYZ.S in assay [3] (dose 0.08 uM) is given as 0.041 log2 fold change; in assay [3] (dose 0.40 uM), −0.029 log2 fold change; in assay [3] (dose 2.00 uM) it was −0.054 log2 fold change; in assay [3] (dose 10.00 uM), −0.294 log2 fold change.
